Columns and labels:
DOT1L = target: T1, DOT1L (Homo sapiens, UniProt Q8TEK3); experiment: DOT1L enzyme activity assay (cell-free); type: biochemical; details: 500 nM, 2 h, DOT1L 500 ng/well
T1 construct: purchased BPS Bioscience 52202
Procedure: DOT1L enzyme activity was measured using 5 μM S-adenosyl methionine (SAM) as the methyl group donor, synthesized DOT1L substrate as the substrate, and 25 ng/μL DOT1L enzymes from BPS Bioscience (Cat. No. 52202; San Diego, CA, USA) according to the manufacturer’s instructions.

MDA-MB-231 TNBC cells = experiment: SRB cell proliferation assay, MDA-MB-231; type: cell-based, human; details: for IC50: 72 h, SRB assay; for Therapeutic Index: ratio of IC50 values between MCF10A and MDA-MB-231 cells
Procedure: (§1) Human breast epithelial cell line (MCF10A) and human TNBC cell lines (MDA-MB-468, MDA-MB-231, Hs578T, and HCC38 cells) were provided by the American Type Culture Collection (Manassas, VA, USA). MCF10A cells were cultured in Dulbecco’s Modified Eagle’s Medium/Nutrient Mixture F-12 containing 5% donor horse serum, 100 ng/mL cholera toxin, 10 µg/mL human insulin, 20 ng/mL epidermal growth factor, 0.5 µg/mL hydrocortisone, and penicillin-streptomycin (sodium penicillin G: 100 units/mL; streptomycin: 100 μg/mL). The TNBC cells were cultured in medium [Dulbecco’s Modified Eagle’s Medium for MDA-MB-468, MDA-MB-231, and Hs578T cells; Roswell Park Memorial Institute 1640 medium for HCC38 cells] supplemented with penicillin-streptomycin and 10% fetal bovine serum at 37 °C in a humidified incubator with 5% carbon dioxide. MCF10A cells were cultured in DMEM/F12 containing 5% donor horse serum, 100 ng/mL cholera toxin, 10 µg/mL human insulin, 20 ng/mL epidermal growth factor, 0.5 µg/mL hydrocortisone and penicillin-streptomycin. All reagents used for cell culture, including culture medium, fetal bovine serum, trypsin-EDTA solution (1×), and penicillin-streptomycin solution (100×), were purchased from Gibco (Grand Island, NE, USA). Laemmli sample buffer (2×) and 2-mercaptoethanol were purchased from Bio-Rad Laboratories, Inc. (Hercules, CA, USA). EPZ-5676 was purchased from Cayman Chemical (Ann Arbor, MI, USA). Dimethyl sulfoxide (DMSO), bicinchoninic acid, copper (II) sulfate solution, bovine serum albumin (BSA), trichloroacetic acid, sulforhodamine B (SRB), and paclitaxel were purchased from Sigma–Aldrich (St. Louis, MO, USA).
(§2) Cell proliferation was evaluated using the SRB assay. Briefly, cells were seeded in 96-well plates and incubated for 30 min (for 0-day controls) or treated with test compounds for the times indicated. After incubation, the cells were fixed, dried, and stained with 0.4% (w/v) SRB in 1% (v/v) acetic acid solution. Unbound dye was removed by washing, and stained cells were dissolved in 10 mM Tris (pH 10.0). Cell proliferation was then determined by measuring the absorbance at 515 nm.

[1] = tested on: MCF10A normal breast epithelial cells; experiment: SRB cell proliferation assay, MCF10A; type: cell-based, human; details: 72 h
Procedure: as §1, §2

[2] = tested on: MDA-MB-231/Luc cells-implanted orthotopic mouse model; experiment: MDA-MB-231/Luc-implanted orthotopic mouse tumor model; type: in vivo; details: 30 mg/kg i.p., three times per week for 38 days
Procedure: All animal experiments were conducted following the guidelines approved by the Seoul National University Institutional Animal Care and Use Committee (IACUC; permission number: SNU-180430-4-1). Female nude mice (BALB/c-nu), 4 weeks old, were purchased from Central Laboratory Animal, Inc. (Seoul, Korea) and housed under pathogen-free conditions with a 12 h light-dark schedule. Luciferase expressing MDA-MB-231 cells were inoculated orthotopically into the fourth fat pad of mice (1 × 10^7 cells in 100 μL of 50:50 PBS/Matrigel) using a 29-gauge needle. Two weeks after implantation, mice were randomized into vehicle control and treatment groups of six animals per group and were administered with vehicle (EtOH/Cremophor/Normal saline = 5:5:90), 9l (10 or 30 mg/kg body weight), EPZ-5676 (30 mg/kg body weight), or paclitaxel (5 mg/kg body weight, Sigma-Aldrich) as a positive reference control. Compounds were administered intraperitoneally three times per week for 38 days. An additional week later, anesthetized mice were positioned in IVIS (PerkinElmer, Waltham, MA, USA) and were imaged 15 min after injection of 150 mg/kg D-luciferin (Gold Biotechnology, St. Louis, MO, USA) resuspended in DPBS (w/o calcium or magnesium). Mice were euthanized and primary tumors and lungs were excised, weighed, and frozen for further biochemical analysis. The length (L), width (W), and height (H) of the tumors were also measured using a digital slide caliper (Mitutoyo, Kawasaki, Japan) once a week, and tumor volumes (mm^3) were estimated by the formula LWH/2. Toxicity was evaluated based on body weight loss.
A portion of the frozen tumors excised from nude mice on the termination day of the experiment was homogenized using a hand-held homogenizer in complete lysis buffer (Active Motif, Carlsbad, CA, USA). Aliquots were stored at −80 °C, and the levels of protein expression in the tumor lysates were determined. The protein concentrations in the tumor lysates were measured using the Bradford assay.

[3] = Molecular stability in dichloromethane (TLC analysis); type: physicochemical; details: room temperature, 48 h
Procedure: Figure S1. Thin layer chromatography analysis
Se-S bond analog (Figure 2, compound 9) was dissolved in dichloromethane at room
temperature. After 48 h, thin layer chromatography (TLC) analysis of the compound
9 was performed. (P : Compound 9, C : Co-spot, S : Diphenyl disulfide, SPA :
Compound 5b, eluent: [Hexane:EtOAc = 1:1] ).
(1 picture or pasted object on this page, not shown here)

T1 sequence (Q8TEK3 whole entry): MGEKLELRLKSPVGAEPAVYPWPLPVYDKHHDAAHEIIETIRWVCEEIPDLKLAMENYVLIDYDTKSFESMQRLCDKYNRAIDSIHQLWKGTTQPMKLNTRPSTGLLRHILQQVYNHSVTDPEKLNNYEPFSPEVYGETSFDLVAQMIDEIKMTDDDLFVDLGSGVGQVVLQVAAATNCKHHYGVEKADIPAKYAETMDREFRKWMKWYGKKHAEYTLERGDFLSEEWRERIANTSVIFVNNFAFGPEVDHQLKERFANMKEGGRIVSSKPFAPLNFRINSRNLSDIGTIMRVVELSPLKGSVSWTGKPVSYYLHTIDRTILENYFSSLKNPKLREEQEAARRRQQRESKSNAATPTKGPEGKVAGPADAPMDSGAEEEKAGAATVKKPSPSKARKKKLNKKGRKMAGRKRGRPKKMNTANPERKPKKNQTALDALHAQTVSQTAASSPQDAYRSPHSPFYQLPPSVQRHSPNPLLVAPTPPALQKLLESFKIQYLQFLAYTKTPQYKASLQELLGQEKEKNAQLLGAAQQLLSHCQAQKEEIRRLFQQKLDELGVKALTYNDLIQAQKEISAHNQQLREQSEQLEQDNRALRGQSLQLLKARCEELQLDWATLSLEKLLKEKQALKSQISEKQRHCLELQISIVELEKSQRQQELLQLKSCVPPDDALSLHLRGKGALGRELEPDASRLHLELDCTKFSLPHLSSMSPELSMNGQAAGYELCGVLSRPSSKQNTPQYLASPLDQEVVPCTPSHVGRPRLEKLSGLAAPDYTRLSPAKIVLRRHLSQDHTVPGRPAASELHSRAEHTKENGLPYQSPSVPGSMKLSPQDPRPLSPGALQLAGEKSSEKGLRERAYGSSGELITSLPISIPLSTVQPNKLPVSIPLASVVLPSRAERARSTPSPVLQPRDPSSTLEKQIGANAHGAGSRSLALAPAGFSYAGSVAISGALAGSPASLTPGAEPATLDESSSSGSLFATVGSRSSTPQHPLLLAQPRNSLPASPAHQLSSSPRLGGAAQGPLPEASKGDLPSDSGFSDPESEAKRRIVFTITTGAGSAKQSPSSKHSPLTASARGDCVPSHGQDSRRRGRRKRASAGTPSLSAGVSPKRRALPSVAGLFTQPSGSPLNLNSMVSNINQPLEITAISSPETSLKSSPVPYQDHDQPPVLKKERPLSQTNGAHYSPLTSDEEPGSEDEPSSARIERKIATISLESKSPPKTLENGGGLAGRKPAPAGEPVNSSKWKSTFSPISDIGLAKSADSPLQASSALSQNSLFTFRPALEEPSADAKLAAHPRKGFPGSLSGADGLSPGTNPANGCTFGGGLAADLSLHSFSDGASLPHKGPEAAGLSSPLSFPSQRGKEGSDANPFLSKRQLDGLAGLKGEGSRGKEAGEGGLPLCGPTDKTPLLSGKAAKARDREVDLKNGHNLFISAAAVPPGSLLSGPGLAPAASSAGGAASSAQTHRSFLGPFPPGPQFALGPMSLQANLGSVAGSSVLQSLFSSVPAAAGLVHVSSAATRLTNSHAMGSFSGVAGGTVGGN

| Structure (SMILES) | IC50 (MDA-MB-231 TNBC cells; Homo sapiens, MDA-MB-231) | Therapeutic Index (MDA-MB-231 TNBC cells) | IC50 ([1]; Homo sapiens, MCF-10A) | also measured |
| --- | --- | --- | --- | --- |
| O=C(NCC[Se]Sc1ccccc1)/C(Cc1ccc(O)c(Br)c1)=N/O [9a, (E)-3-(3-Bromo-4-hydroxyphenyl)-2-(hydroxyimino)-N-(2-((phenylthio)selanyl)ethyl)propanamide] | 0.21 µM | 82.10 | 17.2 µM | Inhibition of DOT1L enzyme activity (DOT1L): significant inhibitory effects |
| O=C(NCC[Se]Sc1ccccc1)/C(Cc1ccccc1)=N/O [9b, (E)-2-(Hydroxyimino)-3-phenyl-N-(2-((phenylthio)selanyl)ethyl)propanamide] | 0.25 µM | 86.08 | 21.5 µM | Inhibition of DOT1L enzyme activity (DOT1L): significant inhibitory effects |
| O=C(NCC[Se]Sc1ccccc1)/C(Cc1ccc2ccccc2c1)=N/O [9c, (E)-2-(Hydroxyimino)-3-(naphthalen-2-yl)-N-(2-((phenylthio)selanyl)ethyl)propanamide] | 0.46 µM | 61.30 | 28.2 µM | – |
| O=C(NCC[Se]Sc1ccccc1)/C(Cc1ccc(F)cc1)=N/O [9d, (E)-3-(4-Fluorophenyl)-2-(hydroxyimino)-N-(2-((phenylthio)selanyl)ethyl)propanamide] | 0.39 µM | 66.77 | 26 µM | – |
| O=C(NCC[Se]Sc1ccccc1)/C(Cc1ccc(F)c(F)c1)=N/O [9e, (E)-3-(3,4-Difluorophenyl)-2-(hydroxyimino)-N-(2-((phenylthio)selanyl)ethyl)propanamide] | 0.43 µM | 54.23 | 23.3 µM | – |
| O=C(NCC[Se]Sc1ccccc1)/C(Cc1ccc(Cl)cc1)=N/O [9f, (E)-3-(4-Chlorophenyl)-2-(hydroxyimino)-N-(2-((phenylthio)selanyl)ethyl)propanamide] | 0.47 µM | 57.60 | 27.1 µM | – |
| O=C(NCC[Se]Sc1ccccc1)/C(Cc1ccc(Cl)c(Cl)c1)=N/O [9g, (E)-3-(3,4-Dichlorophenyl)-2-(hydroxyimino)-N-(2-((phenylthio)selanyl)ethyl)propanamide] | 0.33 µM | 68.67 | 22.7 µM | – |
| O=C(NCC[Se]Sc1ccccc1)/C(Cc1ccc(Br)cc1)=N/O [9h, (E)-3-(4-Bromophenyl)-2-(hydroxyimino)-N-(2-((phenylthio)selanyl)ethyl)propanamide] | 0.4 µM | 72.85 | 29.1 µM | – |
| CCOc1ccc(C/C(=N\O)C(=O)NCC[Se]Sc2ccccc2)cc1 [9i, (E)-3-(4-Ethoxyphenyl)-2-(hydroxyimino)-N-(2-((phenylthio)selanyl)ethyl)propanamide] | 0.17 µM | 123.65 | 21 µM | – |
| O=C(NCC[Se]Sc1ccccc1)/C(Cc1ccc(OCc2ccccc2)cc1)=N/O [9j, (E)-3-(4-(Benzyloxy)phenyl)-2-(hydroxyimino)-N-(2-((phenylthio)selanyl)ethyl)propanamide] | 0.18 µM | 108.22 | 19.5 µM | – |
| O=C(NCC[Se]Sc1ccccc1)/C(Cc1ccc([N+](=O)[O-])cc1)=N/O [9k, (E)-2-(Hydroxyimino)-3-(4-nitrophenyl)-N-(2-((phenylthio)selanyl)ethyl)propanamide] | 0.19 µM | 95.53 | 18.2 µM | – |
| O=C(NCC[Se]Sc1ccccc1)/C(Cc1ccc(O)c(Cl)c1)=N/O [9m, (E)-3-(3-Chloro-4-hydroxyphenyl)-2-(hydroxyimino)-N-(2-((phenylthio)selanyl)ethyl)propanamide] | 0.25 µM | 68.08 | 17 µM | – |
| O=C(NCC[Se]Sc1ccccc1)/C(Cc1ccc(O)c(F)c1)=N/O [9n, (E)-3-(3-Fluoro-4-hydroxyphenyl)-2-(hydroxyimino)-N-(2-((phenylthio)selanyl)ethyl)propanamide] | 0.23 µM | 80.48 | 18.5 µM | – |
| CC(C)N(C[C@H]1O[C@@H](n2cnc3c(N)ncnc32)[C@H](O)[C@@H]1O)[C@H]1C[C@@H](CCc2nc3cc(C(C)(C)C)ccc3[nH]2)C1 [EPZ-5676, reference compound] | > 50 µM | – | > 50 µM | inhibition of proliferation of TNBC cells (MDA-MB-231 TNBC cells; at 50 μM): not able to inhibit the proliferation; effect on tumor growth [2]: did not affect tumor growth |
| CC(=O)O[C@H]1C(=O)[C@@]2(C)[C@H]([C@H](OC(=O)c3ccccc3)[C@]3(O)C[C@H](OC(=O)[C@H](O)[C@@H](NC(=O)c4ccccc4)c4ccccc4)C(C)=C1C3(C)C)[C@]1(OC(C)=O)CO[C@@H]1C[C@@H]2O [Paclitaxel, reference compound] | 0.01 µM | 19.80 | 0.198 µM | – |
| CC(C)(C)c1ccc(CC(=NO)C(=O)NCCSSc2ccccc2)cc1 [PsA-3091, reference compound] | – | 68.99 | – | IC50 (MDA-MB-231 TNBC cells): 1.98 µM; IC50 [1]: 137 µM |
| O=C(NCCSSCCNC(=O)/C(Cc1ccc(O)c(Br)c1)=N/O)/C(Cc1ccc(O)c(Br)c1)=N/O [Psammaplin A (PsA), Psammaplin A] | 2.82 µM | 11.60 | 32.7 µM | Inhibition of DOT1L enzyme activity (DOT1L): negligible DOT1L inhibition |
| O=C(NCC[Se]Sc1ccccc1)/C(Cc1ccccc1)=N/O [compound 9] | – | – | – | molecular stability [3]: stable |

— article PMC7824081, “Inhibition of DOT1L by Half-Selenopsammaplin A Analogs Suppresses Tumor Growth and EMT-Mediated Metastasis in Triple-Negative Breast Cancer” (Pharmaceuticals, 2020)
